Source: ChEMBL document CHEMBL1158838, “Immunosuppressive iridoids from the fruits of Gardenia jasminoides” (J Nat Prod, 2005)
Active and inactive are the calls of the source. The calls are words filed in the database; no cut-off is given here.

Tests used:
T-cell [1] = experiment: Immunosuppressive activity against human peripheral blood T cells assessed as inhibition of PMA and anti-CD28 monoclonal antibody-costimulated IL2 secretion at 50 ug/ml by ELISA; type: functional, cell-based
T-cell [2] = experiment: Immunosuppressive activity against human peripheral blood T cells assessed as inhibition of PMA and anti-CD28 monoclonal antibody-costimulated IL2 secretion at 100 ug/ml by ELISA; type: functional, cell-based

SMILES | Activity (T-cell [1]) | Activity (T-cell [2])
C[C@]1(O)C[C@H](O)[C@@H]2C(C=O)=CO[C@@H](O[C@@H]3O[C@H](CO)[C@@H](O)[C@H](O)[C@H]3O)[C@@H]21 | Active | Active
C[C@]1(O)C[C@@H](O)[C@@H]2C(C(=O)O)=CO[C@@H](O[C@@H]3O[C@H](CO)[C@@H](O)[C@H](O)[C@H]3O)[C@@H]21 | Active | Active
COC(=O)C1=CO[C@@H](O[C@@H]2O[C@H](CO)[C@@H](O)[C@H](O)[C@H]2O)[C@@H]2C(CO)=CC[C@H]12 | Active | Active
COC(=O)C1=CO[C@@H](O[C@@H]2O[C@H](CO)[C@@H](O)[C@H](O)[C@H]2O)[C@@H]2C(CO)=C[C@H](O)[C@H]12 | Active | Active
COC(=O)C1=CO[C@@H](O[C@@H]2O[C@H](CO)[C@@H](O)[C@H](O)[C@H]2O)[C@@H]2C(CO)=C[C@@H](O)[C@H]12 |  | Active
COC(=O)C1=CO[C@@H](O[C@@H]2O[C@H](CO[C@@H]3O[C@H](CO)[C@@H](O)[C@H](O)[C@H]3O)[C@@H](O)[C@H](O)[C@H]2O)[C@@H]2C(CO)=CC[C@H]12 |  | Active
